Source: US10039753B2, “Imidazo[4,5-c]quinoline and imidazo[4,5-c][1,5]naphthyridine derivatives as LRRK2 inhibitors” (Pfizer Inc., priority 2015, dated 2018)
Where a name gives a salt, the structure may show the parent alone.

What was measured:
[1] = biological target: T1, GST-tagged truncated LRRK2 (Homo sapiens, UniProt Q5S007); assay: LRRK2 Assay, Format 1 (Lantha Screen), WT; format: biochemical
T1 construct: GST-tagged truncated LRRK2 from Invitrogen (Cat # PV4874); GST; purchased Invitrogen PV4874
T1 sequence (Q5S007 970-2527 limits assumed): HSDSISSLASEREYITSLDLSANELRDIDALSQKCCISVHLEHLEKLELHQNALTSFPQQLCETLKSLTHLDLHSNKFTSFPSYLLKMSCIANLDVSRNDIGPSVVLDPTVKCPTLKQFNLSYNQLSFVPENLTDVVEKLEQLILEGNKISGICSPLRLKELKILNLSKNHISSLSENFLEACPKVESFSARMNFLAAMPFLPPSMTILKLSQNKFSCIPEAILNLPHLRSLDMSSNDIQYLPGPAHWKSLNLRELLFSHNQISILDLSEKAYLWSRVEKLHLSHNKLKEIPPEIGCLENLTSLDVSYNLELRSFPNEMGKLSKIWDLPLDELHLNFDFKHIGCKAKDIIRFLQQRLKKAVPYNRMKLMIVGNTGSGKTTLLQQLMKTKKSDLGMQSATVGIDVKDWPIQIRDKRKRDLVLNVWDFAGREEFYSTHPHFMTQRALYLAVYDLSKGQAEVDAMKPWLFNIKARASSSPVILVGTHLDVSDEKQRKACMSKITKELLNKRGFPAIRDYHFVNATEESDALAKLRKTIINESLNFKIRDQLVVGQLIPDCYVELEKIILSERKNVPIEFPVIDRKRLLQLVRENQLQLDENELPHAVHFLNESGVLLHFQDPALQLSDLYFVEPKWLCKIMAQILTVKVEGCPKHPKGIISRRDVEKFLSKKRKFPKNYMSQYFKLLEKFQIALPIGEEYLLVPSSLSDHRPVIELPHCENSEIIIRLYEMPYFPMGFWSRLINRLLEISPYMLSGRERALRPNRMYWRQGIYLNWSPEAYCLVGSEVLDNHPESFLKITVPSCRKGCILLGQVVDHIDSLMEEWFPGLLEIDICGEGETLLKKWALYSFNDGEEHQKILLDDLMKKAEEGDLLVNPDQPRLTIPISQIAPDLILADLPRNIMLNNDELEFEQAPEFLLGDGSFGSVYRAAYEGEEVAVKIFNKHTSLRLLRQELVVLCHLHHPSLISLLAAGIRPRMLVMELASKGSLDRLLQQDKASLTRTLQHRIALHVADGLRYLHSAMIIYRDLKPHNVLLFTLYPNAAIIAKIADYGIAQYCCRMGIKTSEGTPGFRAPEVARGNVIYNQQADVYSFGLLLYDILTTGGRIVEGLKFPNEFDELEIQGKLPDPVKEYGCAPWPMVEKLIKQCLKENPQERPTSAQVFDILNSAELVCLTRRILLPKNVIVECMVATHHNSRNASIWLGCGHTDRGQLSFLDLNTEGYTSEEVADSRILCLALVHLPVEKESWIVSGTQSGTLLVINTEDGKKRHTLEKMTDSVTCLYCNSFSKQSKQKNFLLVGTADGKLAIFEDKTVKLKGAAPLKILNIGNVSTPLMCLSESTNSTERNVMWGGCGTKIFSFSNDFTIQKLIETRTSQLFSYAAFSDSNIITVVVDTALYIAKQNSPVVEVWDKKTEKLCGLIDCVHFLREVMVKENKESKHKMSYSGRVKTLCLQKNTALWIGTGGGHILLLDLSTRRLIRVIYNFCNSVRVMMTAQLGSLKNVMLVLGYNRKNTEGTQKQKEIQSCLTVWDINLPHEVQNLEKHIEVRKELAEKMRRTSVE
Protocol: LRRK2 kinase activity was measured using Lantha Screen technology from Invitrogen. GST-tagged truncated LRRK2 from Invitrogen (Cat # PV4874) was incubated with a fluorescein-labeled peptide substrate based upon ezrin/radixin/moesin (ERM), also known as LRRKtide (Invitrogen cat # PR8976A), in the presence of a dose response of compound. Upon completion, the assay was stopped and detected with a terbium labeled anti-phospho-ERM antibody (Invitrogen, cat # PR8975A). […] Aliquots (3.5 μL) of the 100% DMSO dose response were mixed with 46.5 μL water then 1 μL of this mixture was added to the 3 μL substrate mix in the 384-well plate. The kinase reaction was started with 3 μL of a working solution of LRRK2 enzyme at a concentration of 4 μg/mL. […] The reaction was allowed to progress at room temperature for two hours and then stopped with the addition of 7 μL of detection buffer (20 mM Tris pH 7.6, 0.01% NP-40, 0.02% NaN3, 6 mM EDTA with 2 nM terbium labeled anti-phospho-ERM).

mutant G2019S LRRK2 = mutant G2019S LRRK2 (Homo sapiens, UniProt Q5S007, G2019S); assay: LRRK2 Assay, Format 1 (Lantha Screen), G2019S mutant
Sequence of mutant G2019S LRRK2 (Q5S007 970-2527 G2019S limits assumed): as the sequence (Q5S007 970-2527 limits assumed) above, with G1050S counted along it

[2] = 100 nM LRRKtide, 50 μM ATP, 1.7 μg/mL LRRK2 enzyme, two hours at room temperature
[3] = Format 1, wild-type LRRK2, geometric mean of 2-4 determinations unless footnoted (a: ≥5 determinations; b: single determination; c: determined on trifluoroacetate salt)

Row | Compound | IC50 [1, 2] [nM] | IC50 (mutant G2019S LRRK2) [nM] | IC50 [1, 3] [nM] | LRRK2 potency compared to Example 5 (its enantiomer) ([1]; qualitative statement referring to Table 3 data)
1 | COc1ccc2ncc3nc(Cc4noc(C)n4)n([C@H]4CCO[C@@H](C)C4)c3c2c1 [enantiomer of Example 87, 8-methoxy-2-[(5-methyl-1,2,4-oxadiazol-3-yl)methyl]-1-[(2S,4S)-2-methyltetrahydro-2H-pyran-4-yl]-1H-imidazo[4,5-c]quinoline] | 2850 | 929 | – | –
2 | Cc1cnc(Cc2nc3cnc4ccc(Cl)cc4c3n2[C@@H]2CCO[C@H](C)C2)o1 [Example 92, 8-chloro-2-[(5-methyl-1,3-oxazol-2-yl)methyl]-1-[(2R,4R)-2-methyltetrahydro-2H-pyran-4-yl]-1H-imidazo[4,5-c]quinoline] | – | 11 | 16.2 | –
3 | COc1ccc2ncc3nc(Cc4cn5ncsc5n4)n([C@@H]4CCO[C@H](C)C4)c3c2c1 [Example 90, 2-(imidazo[2,1-b][1,3,4]thiadiazol-6-ylmethyl)-8-methoxy-1-[(2R,4R)-2-methyltetrahydro-2H-pyran-4-yl]-1H-imidazo[4,5-c]quinoline] | – | 6.4 | 14.8 | –
4 | c1ccc2c(c1)ncc1nc(Cn3cnnn3)n(C3CCOCC3)c12 [Example 35, 1-(tetrahydro-2H-pyran-4-yl)-2-(1H-tetrazol-1-ylmethyl)-1H-imidazo[4,5-c]quinoline] | – | 211 | 152 | –
5 | Cc1nc(Cc2nc3cnc4ccc(Cl)cc4c3n2[C@H]2CCO[C@@H](C)C2)no1 [Example 51, 8-chloro-2-[(5-methyl-1,2,4-oxadiazol-3-yl)methyl]-1-[(2S,4S)-2-methyltetrahydro-2H-pyran-4-yl]-1H-imidazo[4,5-c]quinoline] | – | 49.3 | 109 | significantly less potent
6 | C[C@@H]1C[C@H](n2c(Cc3ncon3)nc3cnc4ccc(Cl)cc4c32)CCO1 [Example 13, 8-chloro-1-[(2R,4R)-2-methyltetrahydro-2H-pyran-4-yl]-2-(1,2,4-oxadiazol-3-ylmethyl)-1H-imidazo[4,5-c]quinoline] | – | 6.4 | 10.3 | –
7 | c1ccc2nn(Cc3nc4cnc5ccccc5c4n3C3CCOCC3)cc2c1 [Example 45, 2-(2H-indazol-2-ylmethyl)-1-(tetrahydro-2H-pyran-4-yl)-1H-imidazo[4,5-c]quinoline] | – | 52.9 | 61.1 | –
8 | Cc1nc2cnc3ccc(Br)cc3c2n1[C@H]1CC[C@@H](F)C1 [Example 6, 8-Bromo-1-[(1S,3R)-3-fluorocyclopentyl]-2-methyl-1H-imidazo[4,5-c]quinoline] | – | 168 | 172 | –
9 | C[C@H]1C[C@@H](n2c(Cc3cn4ncsc4n3)nc3cnc4ccc(Cl)cc4c32)CCO1 (single isomer, unassigned) [Example 64] | – | 132 | 279 | –
10 | Cc1cc(Cc2nc3cnc4ccc(Cl)cc4c3n2C2CCOC(CC#N)C2)no1 (single isomer, unassigned; ent-2) [enantiomer of Example 134, [cis-4-{8-chloro-2-[(5-methyl-1,2-oxazol-3-yl)methyl]-1H-imidazo[4,5-c]quinolin-1-yl}tetrahydro-2H-pyran-2-yl]acetonitrile, ENT-2] | 353 | 327 | – | –
11 | C[C@@H]1C[C@H](n2c(Cc3ccon3)nc3cnc4cccnc4c32)CCO1 [Example 68, 1-[(2R,4R)-2-methyltetrahydro-2H-pyran-4-yl]-2-(1,2-oxazol-3-ylmethyl)-1H-imidazo[4,5-c][1,5]naphthyridine] | – | 19.2 | 23.6 | –
12 | C[C@@H]1C[C@H](n2c(Cc3ccon3)nc3cnc4ccc(F)cc4c32)CCO1 [Example 54, 8-fluoro-1-[(2R,4R)-2-methyltetrahydro-2H-pyran-4-yl]-2-(1,2-oxazol-3-ylmethyl)-1H-imidazo[4,5-c]quinoline] | – | 8 | 8.8 | –
13 | Cc1cn2cc(Cc3nc4cnc5ccccc5c4n3C3CCOCC3)nc2s1 [Example 31, 2-[(2-methylimidazo[2,1-b][1,3]thiazol-6-yl)methyl]-1-(tetrahydro-2H-pyran-4-yl)-1H-imidazo[4,5-c]quinoline] | – | 151 | 126 | –
14 | Fc1ccc2ncc3nc(Cc4cscn4)n(C4CCOCC4)c3c2c1 [Example 77, 8-fluoro-1-(tetrahydro-2H-pyran-4-yl)-2-(1,3-thiazol-4-ylmethyl)-1H-imidazo[4,5-c]quinoline, trifluoroacetate salt] | – | 62.5 | 74.6 | –
15 | Cc1nc2cnc3ccc(C#N)cc3c2n1[C@H]1CCO[C@@H](C)C1 (racemic) [Example 19, 2-methyl-1-(cis-2-methyltetrahydro-2H-pyran-4-yl)-1H-imidazo[4,5-c]quinoline-8-carbonitrile] | – | 55.5 | 81 | –
16 | COc1ccc(Cc2nc3cnc4ccc(F)cc4c3n2C2CCOC(C)(C)C2)nc1 (centres unmarked) [Example 70, 1-(2,2-dimethyltetrahydro-2H-pyran-4-yl)-8-fluoro-2-[(5-methoxypyridin-2-yl)methyl]-1H-imidazo[4,5-c]quinoline] | – | 66.5 | 77.7 | –
17 | CC1(C)CC(n2c(Cc3cn4ncsc4n3)nc3cnc4ccccc4c32)CCO1 (centres unmarked) [Example 73, 1-(2,2-dimethyltetrahydro-2H-pyran-4-yl)-2-(imidazo[2,1-b][1,3,4]thiadiazol-6-ylmethyl)-1H-imidazo[4,5-c]quinoline, trifluoroacetate salt] | – | 98.4 | 76.3 | –
18 | COc1ccc2ncc3nc(Cc4ccon4)n([C@@H]4CCO[C@H](C)C4)c3c2c1 [Example 62, 8-methoxy-1-[(2R,4R)-2-methyltetrahydro-2H-pyran-4-yl]-2-(1,2-oxazol-3-ylmethyl)-1H-imidazo[4,5-c]quinoline] | – | 12.8 | 41.9 | –
19 | c1ccc2c(c1)ncc1nc(Cn3cc(C4CC4)nn3)n(C3CCOCC3)c12 [Example 42, 2-[(4-cyclopropyl-1H-1,2,3-triazol-1-yl)methyl]-1-(tetrahydro-2H-pyran-4-yl)-1H-imidazo[4,5-c]quinoline] | – | 55.9 | 51.2 | –
20 | C[C@H]1C[C@@H](n2c(Cc3cscn3)nc3cnc4ccc(C#N)cc4c32)CCO1 [enantiomer of Example 57, 1-[(2S,4S)-2-methyltetrahydro-2H-pyran-4-yl]-2-(1,3-thiazol-4-ylmethyl)-1H-imidazo[4,5-c]quinoline-8-carbonitrile] | 382 | 196 | – | –
21 | CC1(C)CC(n2c(Cc3ccon3)nc3cnc4ccccc4c32)CCO1 (centres unmarked) [Example 47, 1-(2,2-dimethyltetrahydro-2H-pyran-4-yl)-2-(1,2-oxazol-3-ylmethyl)-1H-imidazo[4,5-c]quinoline] | – | 80.6 | 103 | –
22 | COc1ccc2ncc3nc(Cn4cc(C)nn4)n([C@@H]4CCO[C@H](C)C4)c3c2c1 [Example 88, 8-methoxy-1-[(2R,4R)-2-methyltetrahydro-2H-pyran-4-yl]-2-[(4-methyl-1H-1,2,3-triazol-1-yl)methyl]-1H-imidazo[4,5-c]quinoline] | – | 7.5 | 18 | –
23 | Fc1ccc2ncc3nc(Cc4ccon4)n(C4CCOCC4)c3c2c1 [Example 75, 8-fluoro-2-(1,2-oxazol-3-ylmethyl)-1-(tetrahydro-2H-pyran-4-yl)-1H-imidazo[4,5-c]quinoline, trifluoroacetate salt] | – | 155 | 130 | –
24 | COc1ccc2ncc3nc(Cn4cc(C)nn4)n([C@H]4CCO[C@@H](C)C4)c3c2c1 [enantiomer of Example 88, 8-methoxy-1-[(2S,4S)-2-methyltetrahydro-2H-pyran-4-yl]-2-[(4-methyl-1H-1,2,3-triazol-1-yl)methyl]-1H-imidazo[4,5-c]quinoline] | 1050 | 372 | – | –
25 | CC1(C)CC(n2c(Cn3cc(C(F)(F)F)cn3)nc3cnc4ccc(F)cc4c32)CCO1 (centres unmarked) [Example 81, 1-(2,2-dimethyltetrahydro-2H-pyran-4-yl)-8-fluoro-2-{[4-(trifluoromethyl)-1H-pyrazol-1-yl]methyl}-1H-imidazo[4,5-c]quinoline, trifluoroacetate salt] | – | 121 | 159 | –
26 | Cc1cc(Cc2nc3cnc4ccc(C#N)cc4c3n2[C@@H]2CCO[C@H](C)C2)no1 [Example 3, 2-[(5-Methyl-1,2-oxazol-3-yl)methyl]-1-[(2R,4R)-2-methyltetrahydro-2H-pyran-4-yl]-1H-imidazo[4,5-c]quinoline-8-carbonitrile] | – | 5.1 | 4.9 | –
27 | CC1(C)CC(n2c(Cc3ccon3)nc3cnc4ccc(F)cc4c32)CCO1 (centres unmarked) [Example 84, 1-(2,2-dimethyltetrahydro-2H-pyran-4-yl)-8-fluoro-2-(1,2-oxazol-3-ylmethyl)-1H-imidazo[4,5-c]quinoline, trifluoroacetate salt] | – | 24.9 | 31.4 | –
28 | Cc1cc(Cc2nc3cnc4ccccc4c3n2C2CCOCC2)no1 [Example 39, 2-[(5-methyl-1,2-oxazol-3-yl)methyl]-1-(tetrahydro-2H-pyran-4-yl)-1H-imidazo[4,5-c]quinoline] | – | 157 | 103 | –
29 | C[C@@H]1C[C@H](n2c(Cc3ccon3)nc3cnc4ccc(Br)cc4c32)CCO1 (single isomer, unassigned) [Example 12] | – | 2.4 | 4.5 | –
